Type in all cases: cell-based
The subject of one data set is C. albicans. Briefly: Fungicidal effect of lactate compared with HCl at identical pH (FIG. 1). As to conditions: 5% solution at pH 3.8; incubation at 37 C for two hours; control 1,000,000CFU.
The test system of the next data set is E.coli O6K5. The data set can be described thus: Minimum microbicidal concentration of lactate (microbicidal assay). The conditions noted are these: for Remaining viability: 2.5 h at 37° C. On the procedure:
(§1) E.coli O6K5 (a urinary tract infection pathogen), a group B Streptococcus strain (GBS) CCUG 49086, and C.albicans ATCC 64549, The microorganisms were incubated over night in BHI medium. Thereafter the suspensions were transferred to new tubes and incubated for 2.5 h at 37° C. The cells were washed and suspended in diluted BHI ( 1/100, BHIdll). The suspensions were measured spectrophotometrically at 590 nm and the concentrations of the microrganisms adjusted according to standard curves. The bacterial suspensions were adjusted to 2×10^8CFU per ml and C.albicans
(§2) One lactate suppository was dissolved in 0.5 ml of distilled water. A lactate solution of 11.5% was obtained. This solution was used in the microbicidal assay.
(§3) The lactate solution was serially diluted in BHIdll by twofold steps in tubes (100 μl piper tube). The bacterial and yeast cell solutions were added in 10 μl volumes to give a final concentration of approximately 2×10^7 and 1×10^5 cells per ml respectively. The tubes were incubated at 37° C. on a shaker for 2.5 h. Five ul were taken from each tube and added as a drop (in triplicate) onto a blood agar plate and incubated over night at 37° C. The killing was expressed as remaining colony forming units (CFU) in relation to the inoculum. The lower limit for detection of microorganisms was 200 CFU/ml. The viability of any remaining microorganism in the tubes was checked by diluting the remaining solutions to 1/5 with growth medium, resulting in a 2.3% lactate solution or less, and incubation of the tubes over night at 37 C. The next day, once again 5 μl of the solutions were applied as drops onto blood agar plates and incubated at 37° C. over night.

A further data set relates to C.albicans ATCC 64549. The data set is described as above. The conditions noted are these: for killed: after 2.5 h of incubation; for Remaining viability: 2.5 h at 37° C. On the procedure: as §1, §2, §3
For data set [1], the system named is group B Streptococcus strain (GBS) CCUG 49086. The data set is described as above. As to conditions: for Remaining viability: 2.5 h at 37° C.; for killed: after 2.5 h of incubation. On the procedure:
as §1, §2, §3

Where a name gives a salt, the structure may show the parent alone.

On to `Cl` [HCl, reference compound], for which the “viable colony forming units of C. albicans” value in the data set on C. albicans was 100,000 CFU.

For the molecule `CC(O)C(=O)O` (stereo not shown) [lactate], the “lactate concentration that effectively killed the pathogen” value (with E.coli O6K5 (2.5 h incubation); with C.albicans ATCC 64549 (2.5 h incubation); in data set [1] (2.5 h incubation)) was not below 5.8% each time. Further, the Remaining viability with E.coli O6K5 (lactate concentration 0.35%), in the data set with E.coli O6K5 (lactate concentration 0.7%), in the data set on E.coli O6K5 (lactate concentration 1.4%), in the data set with E.coli O6K5 (lactate concentration 2.9%), in the data set with E.coli O6K5 (lactate concentration 5.8%) and in the data set on E.coli O6K5 (lactate concentration 11.5%) was 0 each time. Also, the Remaining viability result in the data set on C.albicans ATCC 64549 (lactate concentration 0.35%) is on record as “+ (no distinguishable colonies (>50 CFU per area = >10^4 CFU per ml))”; in the data set with C.albicans ATCC 64549 (lactate concentration 0.7%), “+ (no distinguishable colonies (>50 CFU per area = >10^4 CFU per ml))”; in the data set with C.albicans ATCC 64549 (lactate concentration 1.4%), “+ (no distinguishable colonies (>50 CFU per area = >10^4 CFU per ml))”; with C.albicans ATCC 64549 (lactate concentration 2.9%), “+ (no distinguishable colonies (>50 CFU per area = >10^4 CFU per ml))”; in the data set with C.albicans ATCC 64549 (lactate concentration 5.8%), 0.6 ± 0.4^¤ percentage of the inoculum; in the data set on C.albicans ATCC 64549 (lactate concentration 11.5%), 0. Also, the Remaining viability entry in data set [1] (lactate concentration 0.35%) is “+ (no distinguishable colonies (>50 CFU per area = >10^4 CFU per ml))”; in data set [1] (lactate concentration 0.7%), “+ (no distinguishable colonies (>50 CFU per area = >10^4 CFU per ml))”; in data set [1] (lactate concentration 1.4%) it was “+ (no distinguishable colonies (>50 CFU per area = >10^4 CFU per ml))”; in data set [1] (lactate concentration 2.9%), “+ (no distinguishable colonies (>50 CFU per area = >10^4 CFU per ml))”; in data set [1] (lactate concentration 5.8%), 0; in data set [1] (lactate concentration 11.5%), 0. The killed worked out at 100% with E.coli O6K5 (lowest concentration of lactate tested (0.35%), after 2.5 h of incubation); 99.4% with C.albicans ATCC 64549 (5.8% of lactate); 100% with C.albicans ATCC 64549 (11.5% of lactate); 100% in data set [1] (lactate concentration 5.8%); 100% in data set [1] (lactate concentration 11.5%). In the data set on C. albicans, the “viable colony forming units of C. albicans” value is given as less than 100 CFU.

For the origin of these results see patent US10016358B2 (ROLF KULLGREN AB, priority 2008, dated 2018).
